The record followed here is ChEMBL document CHEMBL5608235, “Tricyclic Benzo[1,3]oxazinyloxazolidinones as Potent Antibacterial Agents against Drug-Resistant Pathogens” (J Med Chem, 2024).

≈ marks a conversion by molar mass, not a printed value. Calls of active or inactive are those of the source. No cut-off for these calls is given here.

For data set [1], the system named is Staphylococcus aureus. Description: Antibacterial activity against methicillin resistant Staphylococcus aureus clinical isolate 20-2 assessed as inhibition of bacterial growth incubated for 7 days by alamar blue assay. The data set is classed as functional. The following applies: clinical isolate 20-2, 168 h, time 7 day.
Data set [2] concerns Staphylococcus aureus. Description: Antibacterial activity against methicillin resistant Staphylococcus aureus ATCC 33592 infected in cyclophosphamide-induced immunosuppressed Kunming mouse assessed as appearance of inflated alveoli in lung at 50 mg/kg,po administration measured after 24 hrs by hematoxylin and eosin staining based microscopy. The class given is functional, organism-based.

Data set [3] can be described thus: Cmax in BALB/c mouse at 1 mg/kg,iv administration measured upto 24 hrs by LC-MS/MS analysis. The following applies: in vivo. The data set is classed as ADME, organism-based.
Data set [4] can be described thus: MRT (0 to infinity) in BALB/c mouse at 10 mg/kg,po administration measured upto 24 hrs by LC-MS/MS analysis. The data set is classed as ADME, organism-based. The following applies: in vivo.
Data set [5] has as its system Staphylococcus aureus. As to the kind of experiment: Antibacterial activity against Linezolid resistant Staphylococcus aureus assessed as inhibition of bacterial growth incubated for 7 days by alamar blue assay. The data set is classed as functional. The following applies: 168 h, time 7 day. (In general: Alamar Blue is a resazurin reagent that responds to reducing activity.)

For data set [6], the system named is Enterococcus faecalis. Description: Antibacterial activity against Linezolid resistant Enterococcus faecalis clinical isolate 20-2 assessed as inhibition of bacterial growth incubated for 7 days by alamar blue assay. The following applies: clinical isolate 20-2, 168 h, time 7 day. The data set is classed as functional.
Data set [7] relates to Staphylococcus aureus. Description: Induction of resistant development in methicillin resistant Staphylococcus aureus ATCC 33592 assessed as fold increase in MIC at 0.5 to 4 ug/ml measured after 30 serial passages by broth microdilution analysis. The class given is functional. The following applies: dose 0.5-4 µg/ml. In general terms: Dilution methods test growth across graded concentrations, often in twofold steps.

Data set [8] deals with Staphylococcus aureus. Description: Antibacterial activity against methicillin resistant Staphylococcus aureus ATCC 33592 infected in cyclophosphamide-induced immunosuppressed Kunming mouse assessed as reduction in histopathological change in spleen at 10 mg/kg,po administration measured after 24 hrs by hematoxylin and eosin staining based microscopy. The data set is classed as functional, organism-based.

Data set [9] in a line: MRT (0 to t) in BALB/c mouse at 10 mg/kg,po administration measured upto 24 hrs by LC-MS/MS analysis. The data set is classed as ADME, organism-based. The following applies: in vivo.
A short description of data set [10]: AUC (0 to t) in BALB/c mouse at 10 mg/kg,po administration measured upto 24 hrs by LC-MS/MS analysis. The data set is classed as ADME, organism-based. The following applies: in vivo.
Data set [11] concerns Enterococcus faecalis. Description: Antibacterial activity against Enterococcus faecalis ATCC29212 assessed as inhibition of bacterial growth incubated for 18 hrs by microdilution broth assay. The data set is classed as functional.
In data set [12] the test system is Enterococcus faecalis. As to the kind of experiment: Antibacterial activity against Linezolid resistant Enterococcus faecalis clinical isolate 20-1 assessed as inhibition of bacterial growth incubated for 7 days by alamar blue assay. The data set is classed as functional. The following applies: clinical isolate 20-1, 168 h, time 7 day.
Data set [13] relates to Staphylococcus aureus. As to the kind of experiment: Antibacterial activity against Linezolid resistant Staphylococcus aureus clinical isolate 20-1 assessed as inhibition of bacterial growth incubated for 7 days by alamar blue assay. The data set is classed as functional. The following applies: clinical isolate 20-1, 168 h, time 7 day.
The nature of data set [14]: AUC (0 to infinity) in BALB/c mouse at 10 mg/kg,po administration measured upto 24 hrs by LC-MS/MS analysis. The data set is classed as ADME, organism-based. The following applies: BALB/c, in vivo.
The subject of data set [15] is Staphylococcus aureus. Description: Bacteriostatic activity against methicillin resistant Staphylococcus aureus ATCC 33592 at 1 times MIC incubated for 2 to 24 hrs by time-kill assay. The data set is classed as functional, organism-based. The following applies: time 2-24 hrs.
Data set [16] in a line: Volume of distribution in BALB/c mouse at 1 mg/kg,iv administration measured upto 24 hrs by LC-MS/MS analysis. The class given is ADME, organism-based. The following applies: in vivo.
Data set [17] concerns Staphylococcus aureus. As to the kind of experiment: Antibacterial activity against methicillin resistant Staphylococcus aureus ATCC 33592 infected in cyclophosphamide-induced immunosuppressed Kunming mouse assessed as decrease in IL-1beta level at po administration measured after 24 hrs by ELISA. The class given is functional, organism-based.
The test system of data set [18] is Cell membrane. Description: Disruption of cell membrane integrity in Staphylococcus aureus ATCC 25923 assessed as increase in blue fluorescence at 1 ug/ml incubated for 1 hr by […] and propidium iodide double staining based confocal microscopic analysis. The data set is classed as cell membranes. The following applies: dose 1.0 µg/ml.
Data set [19] has as its system Staphylococcus aureus. Description: Antibacterial activity against methicillin resistant Staphylococcus aureus ATCC 33592 infected in cyclophosphamide-induced immunosuppressed Kunming mouse assessed as reduction in inflammatory cell infiltration in liver at 50 mg/kg,po administration measured after 24 hrs by hematoxylin and eosin staining based microscopy. The data set is classed as functional, organism-based.

The next data set concerns Enterococcus. As to the kind of experiment: Antibacterial activity against vancomycin resistant Enterococcus clinical isolate 20-1 assessed as inhibition of bacterial growth incubated for 7 days by alamar blue assay. The class given is functional. The following applies: clinical isolate 20-1, 168 h, time 7 day.
Data set [20] concerns Cell membrane. Description: Disruption of cell membrane in methicillin resistant Staphylococcus aureus ATCC 33592 assessed as damage in bacterial cell envelope at 0.5 ug/ml incubated for 30 mins by Scanning electron microscopic analysis. The class given is cell membranes. The following applies: dose 0.5 µg/ml.
Data set [21] concerns Staphylococcus aureus. Description: Antibacterial activity against methicillin resistant Staphylococcus aureus ATCC 33592 infected in cyclophosphamide-induced immunosuppressed Kunming mouse assessed as increase in lymphocytes at 25 to 50 mg/kg,po administration measured after 7 days by Giemsa staining based analysis. The data set is classed as functional, organism-based. The following applies: dose 25-50 mg/kg, time 7.0 day.

As for `CC(=O)NC[C@@H]1OC(=O)N2Cc3cc(-c4ccc(C#N)cc4)c(F)cc3O[C@@H]12`, the MIC with Staphylococcus aureus [1] worked out at 0.5 µg/mL (≈ 1.31 µM); in the data set with Staphylococcus aureus [5], 2 µg/mL (≈ 5.24 µM); with Enterococcus faecalis [6], 1 µg/mL (≈ 2.62 µM); in the data set with Enterococcus faecalis [11], 1 µg/mL (≈ 2.62 µM); in the data set on Enterococcus faecalis [12] it was 1 µg/mL (≈ 2.62 µM); in the data set with Staphylococcus aureus [13], 8 µg/mL (≈ 21 µM). The MIC with Enterococcus amounted to 0.5 µg/mL (≈ 1.31 µM). In addition, the result in the data set on Staphylococcus aureus [2], with Staphylococcus aureus [8], with Staphylococcus aureus [15], in the data set on Cell membrane [18], in the data set with Staphylococcus aureus [19] and with Cell membrane [20] was Active. Moreover, the outcome in the data set on Staphylococcus aureus [21] was Active. In data set [3], this compound displayed a Cmax of 814 ng/mL. The compound also returned an MRT inf in data set [4] of 17.3 h. Further, in the data set on Staphylococcus aureus [7], the fold change (FC) worked out at 8. The MRT last at 24 h in [9] was found to be 9.3 h. Also, the AUC(0-t) at 24 h in [10] came out at 62500 ng·h/mL. Further, the AUC(0-inf) in data set [14] was found to be 83500 ng·h/mL. Further, in data set [16], the Vd amounted to 1.94 L/kg. Further, in the data set with Staphylococcus aureus [17], the Activity result is “Dose-Dependent Effect”.

By MIC is commonly meant the lowest concentration found to suppress growth. For orientation: Cmax means the maximum level reached in the sampled fluid or tissue. By MRT inf is commonly meant a mean duration of stay, worked out from the concentration-time curve. The MRT last is a mean duration of stay, worked out from the concentration-time curve. A word on the AUC(0-t): it is exposure summed from dosing to a finite time, without extrapolation to infinity. A lower AUC(0-t) goes with less exposure. One may read the AUC(0-inf) as total exposure, with the tail of the curve extrapolated. The Vd is the apparent volume that relates the amount in the body to the concentration in plasma or blood.
